Reference: PubChem BioAssay AID248 (DTP/NCI, 2004)
Where “and” joins values, the source holds several entries; their conditions need not be identical. Equal entries are not always repeated. Inconclusive results and toxic doses are left out. Cut-off read from the data, not from the text of the source: active = T/C of 150% or more; inactive = T/C below 125%.

Test system: L1210 leukemia ip in BDF1 mice, survival T/C
Assay: NCI In Vivo Anticancer Drug Screen. Data for tumor model L1210 Leukemia (intraperitoneal) in B6D2F1 (BDF1) mice
Settings: endpoint: mean survival time, higher = longer survival
Summary of the method: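 Transplanted-tumor mice were given test agent; controls received vehicle only. Survival readings from the two groups were divided (treated over control).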

[1] = dose: 100.0 mg/kg/injection, schedule: Q01DX009 (ip), vehicle: Klucel (hydroxypropylcellulose) (HPC)
[2] = dose: 100.0 mg/kg/injection, schedule: Q04DX003 (ip), vehicle: Klucel (hydroxypropylcellulose) (HPC)
[3] = dose: 200.0 mg/kg/injection, schedule: Q01DX009 (ip), vehicle: Klucel (hydroxypropylcellulose) (HPC)
[4] = dose: 200.0 mg/kg/injection, schedule: Q04DX003 (ip), vehicle: Klucel (hydroxypropylcellulose) (HPC)
[5] = dose: 400.0 mg/kg/injection, schedule: Q01DX009 (ip), vehicle: Klucel (hydroxypropylcellulose) (HPC)
[6] = dose: 400.0 mg/kg/injection, schedule: Q04DX003 (ip), vehicle: Klucel (hydroxypropylcellulose) (HPC)
[7] = dose: 50.0 mg/kg/injection, schedule: Q01DX009 (ip), vehicle: saline with Tween-80
[8] = dose: 100.0 mg/kg/injection, schedule: Q01DX009 (ip), vehicle: saline with Tween-80
[9] = dose: 100.0 mg/kg/injection, schedule: Q04DX003 (ip), vehicle: saline with Tween-80
[10] = dose: 200.0 mg/kg/injection, schedule: Q01DX009 (ip), vehicle: saline with Tween-80
[11] = dose: 200.0 mg/kg/injection, schedule: Q04DX003 (ip), vehicle: saline with Tween-80
[12] = dose: 100.0 mg/kg/injection, schedule: Q01DX009 (ip), vehicle: other
[13] = dose: 200.0 mg/kg/injection, schedule: Q01DX009 (ip), vehicle: other
[14] = dose: 400.0 mg/kg/injection, schedule: Q01DX009 (ip), vehicle: other
[15] = dose: 100.0 mg/kg/injection, schedule: Q04DX002 (ip), vehicle: Klucel (hydroxypropylcellulose) (HPC)
[16] = dose: 200.0 mg/kg/injection, schedule: Q04DX002 (ip), vehicle: Klucel (hydroxypropylcellulose) (HPC)
[17] = dose: 400.0 mg/kg/injection, schedule: Q04DX002 (ip), vehicle: Klucel (hydroxypropylcellulose) (HPC)
[18] = dose: 400.0 mg/kg/injection, schedule: Q04DX003 (ip), vehicle: saline with Tween-80
[19] = dose: 100.0 mg/kg/injection, schedule: Q04DX003 (ip), vehicle: saline
[20] = dose: 100.0 mg/kg/injection, schedule: Q01DX001 (ip), vehicle: saline
[21] = dose: 200.0 mg/kg/injection, schedule: Q01DX001 (ip), vehicle: saline
[22] = dose: 100.0 mg/kg/injection, schedule: Q04DX003 (ip), vehicle: other
[23] = dose: 200.0 mg/kg/injection, schedule: Q04DX003 (ip), vehicle: other
[24] = dose: 200.0 mg/kg/injection, schedule: Q04DX003 (ip), vehicle: saline
[25] = dose: 400.0 mg/kg/injection, schedule: Q04DX003 (ip), vehicle: saline
[26] = dose: 50.0 mg/kg/injection, schedule: Q01DX001 (ip), vehicle: saline

Measured: T/C

COc1ccccc1NC(=O)Oc1c(C(C)C)cccc1C(C)C
inactive: [1] 94 % of control | [2] 95 % of control | [3] 97 % of control | [4] 102 % of control | [5] 106 % of control | [6] 94 % of control

CCCN(CCC)CCCCO
inactive: [7] 102 % of control | [8] 95 % of control | [9] 92 % of control | [10] 102 % of control | [11] 102 % of control

O=C(Nc1nccs1)NC1CCCCC1
inactive: [12] 100 % of control | [13] 96 % of control | [14] 93 % of control

CCP(=S)(CC)CC
inactive: [15] 104 % of control | [16] 96 % of control | [17] 93 % of control

COc1cc([N+](=O)[O-])ccc1NC(=O)Nc1ccc(Cl)cc1[N+](=O)[O-]
inactive: [1] 100 % of control | [3] 95 % of control | [5] 90 % of control

NCCNC(=S)S
inactive: dose: 100.0 mg/kg/injection, schedule: Q01DX001 (ip), vehicle: Klucel (hydroxypropylcellulose) (HPC) 103 % of control | [8] 93 % of control | [9] 93 % of control | dose: 200.0 mg/kg/injection, schedule: Q01DX001 (ip), vehicle: Klucel (hydroxypropylcellulose) (HPC) 95 % of control | [10] 87 % of control | [11] 95 % of control | dose: 400.0 mg/kg/injection, schedule: Q01DX001 (ip), vehicle: Klucel (hydroxypropylcellulose) (HPC) 103 % of control | dose: 400.0 mg/kg/injection, schedule: Q01DX009 (ip), vehicle: saline with Tween-80 86 % of control | [18] 91 % of control

CCN(CC)CC(=O)NCC(C)(CCN1CCCCC1)c1cccc2ccccc12 (configuration not stated)
inactive: dose: 25.0 mg/kg/injection, schedule: Q01DX009 (ip), vehicle: saline 91 % of control | dose: 50.0 mg/kg/injection, schedule: Q01DX009 (ip), vehicle: saline 93 % of control | [19] 94 % of control

O=[N+]([O-])c1cc[n+]([O-])cc1
inactive: dose: 6.25 mg/kg/injection, schedule: Q01DX009 (ip), vehicle: saline with Tween-80 98 % of control | dose: 6.25 mg/kg/injection, schedule: Q04DX003 (ip), vehicle: saline with Tween-80 96 % of control | dose: 12.5 mg/kg/injection, schedule: Q01DX009 (ip), vehicle: saline with Tween-80 96 % of control | dose: 12.5 mg/kg/injection, schedule: Q04DX003 (ip), vehicle: saline with Tween-80 96 % of control | dose: 25.0 mg/kg/injection, schedule: Q01DX009 (ip), vehicle: saline with Tween-80 91 % of control | dose: 25.0 mg/kg/injection, schedule: Q04DX003 (ip), vehicle: saline with Tween-80 95 % of control

O=C(NCCCl)C(=O)NCCCl
inactive: [15] 104 % of control | [16] 107 % of control | [17] 93 % of control

CC(C)(S)C(N)C(N)=O (configuration not stated)
inactive: [15] 103 % of control | [16] 97 % of control | [17] 97 % of control

O=C(Nc1ccc([N+](=O)[O-])cc1Cl)c1ccc(C(=O)Nc2ccc([N+](=O)[O-])cc2Cl)cc1
inactive: [20] 96 % of control | [21] 94 % of control | dose: 400.0 mg/kg/injection, schedule: Q01DX001 (ip), vehicle: saline 91 % of control

O=C(C=C(C(F)(F)Cl)C(F)(F)Cl)c1cccs1
inactive: dose: 5.0 mg/kg/injection, schedule: Q01DX009 (ip), vehicle: saline 95 % of control | dose: 10.0 mg/kg/injection, schedule: Q01DX009 (ip), vehicle: saline 88 % of control

O=C(O)c1cc(I)cc(I)c1
inactive: [9] 105 % of control | [11] 101 % of control | [18] 95 % of control

C=CC1CN2CCC1CC2C(O)c1ccnc2ccc(OC)cc12 (configuration not stated) (tested in a mixture with another compound)
inactive: dose: 50.0 mg/kg/injection, schedule: Q01DX009 (ip), vehicle: Klucel (hydroxypropylcellulose) (HPC) 97 % of control and 95 % of control | [7] 95 % of control | dose: 50.0 mg/kg/injection, schedule: Q04DX003 (ip), vehicle: other 95 % of control | dose: 75.0 mg/kg/injection, schedule: Q01DX001 (ip), vehicle: saline 100 % of control and 99 % of control | dose: 100.0 mg/kg/injection, schedule: Q01DX001 (ip), vehicle: carboxymethylcellulose (CMC) 98 % of control | dose: 100.0 mg/kg/injection, schedule: Q01DX001 (ip), vehicle: saline with Tween-80 96 % of control | [1] 97 % of control and 104 % of control | [8] 95 % of control | [15] 107 % of control | [2] 93 % of control | [22] 103 % of control | [9] 103 % of control | [19] 102 % of control | dose: 150.0 mg/kg/injection, schedule: Q01DX001 (ip), vehicle: saline 86 % of control and 99 % of control | dose: 200.0 mg/kg/injection, schedule: Q01DX001 (ip), vehicle: carboxymethylcellulose (CMC) 102 % of control | dose: 200.0 mg/kg/injection, schedule: Q01DX001 (ip), vehicle: saline with Tween-80 96 % of control | [3] 97 % of control | [10] 101 % of control | [16] 96 % of control | [4] 93 % of control | [23] 93 % of control | [11] 87 % of control | [24] 96 % of control | dose: 300.0 mg/kg/injection, schedule: Q01DX001 (ip), vehicle: saline 89 % of control and 91 % of control | dose: 400.0 mg/kg/injection, schedule: Q01DX001 (ip), vehicle: carboxymethylcellulose (CMC) 93 % of control | dose: 400.0 mg/kg/injection, schedule: Q01DX001 (ip), vehicle: saline with Tween-80 93 % of control | [17] 100 % of control

CC(=NCc1ccccc1)C(C)(O)c1ccccc1 (configuration not stated)
inactive: [12] 105 % of control | [22] 97 % of control | [19] 97 % of control | [13] 107 % of control | [23] 90 % of control | [24] 103 % of control | [14] 100 % of control | dose: 400.0 mg/kg/injection, schedule: Q04DX003 (ip), vehicle: other 95 % of control | [25] 95 % of control

O=C(O)CNCc1cc(=O)[nH]c(=O)[nH]1
inactive: [19] 94 % of control | [24] 97 % of control | [25] 105 % of control

CCc1ccc(C)[n+](N)c1
inactive: [26] 103 % of control | [20] 109 % of control

CN1CC(C)(C)C(=O)N1
inactive: dose: 25.0 mg/kg/injection, schedule: Q01DX001 (ip), vehicle: saline 97 % of control | [26] 100 % of control | [20] 108 % of control | [21] 86 % of control

CCOC(=O)C(C(=O)OCC)N(CC)CC
inactive: [1] 96 % of control | [2] 98 % of control | [4] 93 % of control | [5] 95 % of control | [6] 109 % of control
